Laboratory results published in US20260317314A1, “NITROGEN-CONTAINING HETEROCYCLIC COMPOUND AND USE THEREOF” (JIANGSU DEYUAN PHARMACEUTICAL CO.,LTD., priority 2023, published 2026).

Key:
[1] = In vivo pharmacokinetics study in rats; set-up: species or system SD rat; conditions: male SD rats, oral 2 mg/kg
[2] = In vivo pharmacokinetic study in cynomolgus monkeys; set-up: species or system cynomolgus monkey; conditions: male cynomolgus monkeys
[3] = test system: plasma protein; assay: Plasma protein binding rate test, human (equilibrium dialysis); type: in vitro ADME; conditions: 37° C., 4 hours
Description: (§1) The sample was thoroughly mixed.

[4] = test system: plasma protein; assay: Plasma protein binding rate test, SD rat (equilibrium dialysis); type: in vitro ADME; conditions: 37° C., 4 hours
Description: as §1

[5] = test system: plasma protein; assay: Plasma protein binding rate test, cynomolgus monkey (equilibrium dialysis); type: in vitro ADME; conditions: 37° C., 4 hours
Description: as §1

[6] = Plasma protein binding rate test, SD rat (equilibrium dialysis); type: in vitro ADME; conditions: 37° C., read-out: Plasma protein binding rate (%) in SD rats (converted)
Description: as §1

[7] = In vitro liver microsome metabolic stability study; type: in vitro ADME; conditions: human liver microsomes 0.5 mg/mL, compound 1 μM, 37° C., up to 60 minutes
Method: Stock solution: 10 mM in DMSO.
Only 54 μL of microsomal working solution, 6 μL of NADPH regeneration system working solution, and 180 μL of stop solution were added to the blank plate.
LC-MS/MS analysis was performed.

[8] = test system: MDR1-MDCKII cells; assay: Permeability test in MDR1-MDCKII monolayer cell model; type: in vitro ADME; conditions: 2 μM, pH 7.40, 2.5 hours, 37±1° C.
Method: Experimental objective: The permeability and efflux ratio of the compound of the present disclosure were determined using the MDR1-MDCKII monolayer cell model to assess its membrane permeability and potential for P-gp-mediated efflux transport.
Experimental protocol: MDR1-MDCKII cells (obtained from the Netherlands Cancer Institute) were seeded in 96-well plates (obtained from Corning) at a cell density of 3.33×10^5 cells/mL and cultured for 4 to 7 days to form confluent cell monolayers. Hank's balanced salt solution containing 10 mM HEPES (pH 7.40) was used as the transport buffer. The test compound was evaluated for bidirectional transport at a concentration of 2 μM, with the DMSO concentration in the incubation system maintained below 1%. After adding the samples, the cell plate was incubated at 37±1° C., 5% CO2, and saturated humidity for 2.5 hours. All samples were quantitatively analyzed using the LC-MS/MS method. The apparent permeability coefficient (Papp, cm/s) and efflux ratio (ER) were calculated using the following formula. Apparent permeability coefficient (Papp, cm/s) was calculated using the following formula: Papp=(dCr/dt)×Vr/(A×C0). Herein, dCr/dt represents the cumulative concentration of the compound at the receiving end per unit time (μM/s); Vr is the volume of the solution at the receiving end (with solution volumes at the apical and basolateral ends being 0.075 mL and 0.250 mL, respectively); A is the relative surface area of the cell monolayer (0.143 cm^2); C0 is the initial concentration of the test substance at the dosing end (μM) or the peak area ratio of the reference substance. The efflux ratio was calculated using the following formula: ER=Papp(BA)/Papp(AB).

SMILES | T1/2 [1] | AUC0-24 h ([1]; plasma) | T1/2 ([2]; oral 1 mg/kg) | AUC0-24 h ([2]; oral 1 mg/kg, plasma) | Human plasma protein binding rate (%) [3] | Plasma protein binding rate (%) in SD rats [4] | Plasma protein binding rate (%) in cynomolgus monkeys [5] | fraction unbound at 4 h [6] | Intrinsic hepatic clearance CLint(liver) [7] | Apparent permeability coefficient (Papp (AB)) [8] | F ([2]; oral 3 mg/kg) | T1/2 ([2]; oral 3 mg/kg) | AUC0-24 h ([2]; oral 3 mg/kg, plasma) | Cmax ([2]; oral 3 mg/kg, plasma)
CCC(=O)N[C@@H]1CCCc2c(-c3cc4c(s3)N(C)C(=O)CC4)cncc21 (single isomer, unassigned) [Compound 017] | 1.34 h | 8.129 µM·h | 5.30 h | 7.292 µM·h | 82.7% | 94.9% | 78.1% |  |  |  |  |  |  | 
CCC(=O)N[C@@H]1CCCc2c(-c3cc(F)c4c(ccc(=O)n4C)c3)cncc21 (single isomer, unassigned) [Compound 018] |  |  | 5.35 h | 7.586 µM·h | 80.9% |  | 79.5% | 0.08 | <8.6 mL/min/kg | 24.6 10^-6 cm/s |  |  |  | 
CCC(=O)NC1CCCc2c(-c3cc4ccc(=O)n(C)c4cc3F)cncc21 (single isomer, unassigned) [Compound 019] |  |  |  |  | 76.2% | 87.1% | 75.2% |  |  |  | 113% | 4.65 h | 23.864 µM·h | 3.79 µM
